Results on one molecule are retold here after US20050215551A1, “1-[2H-1-benzopyran-2-one-8-yl]- piperazine derivatives for the treatment of movement disorders” (SOLVAY PHARMACEUTICALS B.V., priority 2004, published 2005).

The target of test [1] is CRF (Homo sapiens, UniProt P34998). In words: Receptor binding CRF. To be noted: radioligand [125I]-oCRF, read-out: Ki(nM) Compound 1. Here is the method: (§1) Receptor binding data were obtained by CEREP (128, rue Danton, 92500 Rueil-Malmaison, France) or at Solvay Pharmaceuticals B.V., using well documented standard procedures. Affinity for 5-HT1A receptors for instance, was determined by testing the ability of the compounds of the invention to displace [^3H]-2-(di-n-propylamino)-8-hydroxytetralin ([^3H]-8-OH-DPAT) from its specific binding sites in rat frontal cortex homogenates. This test is based on the method described by Gozlan et al. (Nature, 305, (1983), pages 140-142).
(§2) The binding data collected in the table below were either obtained by CEREP (128, rue Danton, 92500 Rueil-Malmaison, France) or at Solvay Pharmaceuticals B.V., using well documented standard procedures.

Test [2] concerns the target nociceptin (ORL1) (Homo sapiens, UniProt P41146). In words: Receptor binding nociceptin (ORL1). The note with it: radioligand [3H]-nociceptine, read-out: Ki(nM) Compound 1. The method, then: as §1, §2
In test [3] the target is Histamine-H2 (Homo sapiens, UniProt P25021). In words: Receptor binding Histamine-H2. To be noted: radioligand [125I]-APT, read-out: Ki(nM) Compound 1. Here is the method:
as §1, §2

The target in test [4] is CCKA (Homo sapiens, UniProt P32238). In words: Receptor binding CCKA. The note with it: radioligand [3H]-devazepide, read-out: Ki(nM) Compound 1. The method, then: as §1, §2
Test [5] concerns the target Adenosine-A3 (Homo sapiens, UniProt P0DMS8). In words: Receptor binding Adenosine-A3. To be noted: radioligand [3H]-AB-MECA, read-out: Ki(nM) Compound 1. Here is the method: as §1, §2
The target of test [6] is β1-adrenergic (Homo sapiens, UniProt P08588). Put plainly: Receptor binding β1-adrenergic. The note with it: radioligand [3H]-CGP 12177, read-out: Ki(nM) Compound 1. The method, then: as §1, §2
The target in test [7] is 5-HT7 (Homo sapiens, UniProt P34969). In words: Receptor binding 5-HT7. The note with it: radioligand [3H]-LSD, read-out: Ki(nM) Compound 1. Here is the method: as §1, §2
Test [8] has as its target 5-HT1B (Rattus norvegicus, UniProt P28564). Put plainly: Receptor binding 5-HT1B. To be noted: radioligand [125I]-cyanopindolol, read-out: Ki(nM) Compound 1. The method, then: as §1, §2
The target of test [9] is sigma-SG1 (Cavia porcellus, UniProt Q60492). In words: Receptor binding sigma-SG1. The note with it: radioligand [3H]-pentazocone; guinea pig; read-out: Ki(nM) Compound 1. Here is the method: as §1, §2
The target in test [10] is T1, 5-HT1A (Rattus norvegicus, UniProt P19327).
T1 construct: from tissue; host or cells: whole animal (in vivo behavioural test)
Put plainly: In vivo 5-HT1A agonism: lower lip retraction (LLR). The note with it: 60 minutes after oral administration. Here is the method: Lower lip retraction was measured according to the method described by Berendsen et al., (Pharmacol. Biochem. Behav. 33, (1989), 821-827).

The target of test [11] is 5-HTreuptake (Homo sapiens, UniProt P31645). Put plainly: Binding 5-HT reuptake. The note with it: radioligand [3H]-paroxetine, read-out: Ki(nM) Compound 1. The method, then: as §1, §2
Test [12] deals with 5-HT2A (Homo sapiens, UniProt P28223). Put plainly: Receptor binding 5-HT2A. To be noted: radioligand [3H]-ketanserin, read-out: Ki(nM) Compound 1. The method, then: as §1, §2
In test [13] the target is Endothelin-ETB (Homo sapiens, UniProt P24530). In words: Receptor binding Endothelin-ETB. The note with it: radioligand [125I]-endothelin-1, read-out: Ki(nM) Compound 1. The method, then:
as §1, §2

For test [14], the target named is Neuropeptide Y2 (Homo sapiens, UniProt P49146). In words: Receptor binding Neuropeptide Y2. To be noted: radioligand [125I]-PYY, read-out: Ki(nM) Compound 1. Here is the method:
as §1, §2

Test [15] has as its target κ-opiate (Rattus norvegicus, UniProt P34975). In words: Receptor binding κ-opiate. The note with it: radioligand [3H]-U 69593, read-out: Ki(nM) Compound 1. The method, then:
as §1, §2

The target in test [16] is Neurotensin-NT1 (Homo sapiens, UniProt P30989). Put plainly: Receptor binding Neurotensin-NT1. To be noted: radioligand [125I]-neurotensin, read-out: Ki(nM) Compound 1. The method, then: as §1, §2
Test [17] addresses Vasopressine-V1A (Homo sapiens, UniProt P37288). In words: Receptor binding Vasopressine-V1A. The note with it: radioligand [3H]-vasopressine, read-out: Ki(nM) Compound 1. The method, then:
as §1, §2

Test [18] has as its target 5-HT2B (Homo sapiens, UniProt P41595). In words: Receptor binding 5-HT2B. The note with it: radioligand [3H]-LSD, read-out: Ki(nM) Compound 1. The method, then: as §1, §2
The target of test [19] is Neuropeptide Y1 (Homo sapiens, UniProt P25929). In words: Receptor binding Neuropeptide Y1. To be noted: radioligand [125I]-PYY, read-out: Ki(nM) Compound 1. The method, then:
as §1, §2

Sequence of 5-HT2A (P28223 whole entry): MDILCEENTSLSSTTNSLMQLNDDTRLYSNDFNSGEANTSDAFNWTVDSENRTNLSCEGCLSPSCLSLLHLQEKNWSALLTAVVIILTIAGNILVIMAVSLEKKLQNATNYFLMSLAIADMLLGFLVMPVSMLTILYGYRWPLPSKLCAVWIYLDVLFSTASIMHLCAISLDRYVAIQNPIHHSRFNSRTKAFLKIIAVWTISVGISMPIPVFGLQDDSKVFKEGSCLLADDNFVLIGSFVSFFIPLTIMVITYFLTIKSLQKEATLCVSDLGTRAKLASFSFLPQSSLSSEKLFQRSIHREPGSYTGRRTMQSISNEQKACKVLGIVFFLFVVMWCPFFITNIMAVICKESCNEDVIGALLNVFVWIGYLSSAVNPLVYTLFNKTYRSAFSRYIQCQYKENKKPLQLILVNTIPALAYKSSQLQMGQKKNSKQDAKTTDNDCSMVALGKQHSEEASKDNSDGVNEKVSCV
Sequence of 5-HT7 (P34969 whole entry): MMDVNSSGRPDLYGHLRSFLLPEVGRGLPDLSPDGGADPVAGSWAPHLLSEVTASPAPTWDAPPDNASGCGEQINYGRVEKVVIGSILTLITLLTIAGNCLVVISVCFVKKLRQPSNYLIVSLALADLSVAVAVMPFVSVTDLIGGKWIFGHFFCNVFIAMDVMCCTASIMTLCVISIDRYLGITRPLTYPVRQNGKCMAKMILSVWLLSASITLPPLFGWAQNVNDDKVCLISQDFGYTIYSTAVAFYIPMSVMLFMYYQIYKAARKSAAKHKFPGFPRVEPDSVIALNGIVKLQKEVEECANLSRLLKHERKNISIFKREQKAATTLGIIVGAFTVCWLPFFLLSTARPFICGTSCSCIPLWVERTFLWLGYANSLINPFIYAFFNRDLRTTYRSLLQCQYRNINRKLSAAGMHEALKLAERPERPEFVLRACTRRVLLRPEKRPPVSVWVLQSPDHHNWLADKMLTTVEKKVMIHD
Sequence of CRF (P34998 24-415): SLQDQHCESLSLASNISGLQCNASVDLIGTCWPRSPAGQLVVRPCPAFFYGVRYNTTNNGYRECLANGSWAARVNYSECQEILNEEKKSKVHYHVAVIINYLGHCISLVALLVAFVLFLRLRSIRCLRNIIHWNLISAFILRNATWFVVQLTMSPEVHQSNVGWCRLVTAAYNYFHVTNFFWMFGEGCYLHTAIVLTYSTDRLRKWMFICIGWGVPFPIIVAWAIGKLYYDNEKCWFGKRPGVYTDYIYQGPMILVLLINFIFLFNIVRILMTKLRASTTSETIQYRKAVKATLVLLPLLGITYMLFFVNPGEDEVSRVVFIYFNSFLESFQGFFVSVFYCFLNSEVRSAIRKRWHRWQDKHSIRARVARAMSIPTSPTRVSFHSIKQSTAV
Sequence of sigma-SG1 (Q60492 whole entry): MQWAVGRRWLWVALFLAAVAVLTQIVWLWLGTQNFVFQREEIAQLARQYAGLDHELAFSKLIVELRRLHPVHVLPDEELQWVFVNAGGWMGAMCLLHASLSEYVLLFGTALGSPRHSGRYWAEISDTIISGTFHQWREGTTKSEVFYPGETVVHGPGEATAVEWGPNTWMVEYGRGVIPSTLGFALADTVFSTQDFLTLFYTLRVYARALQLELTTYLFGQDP
Sequence of 5-HT1B (P28564 whole entry): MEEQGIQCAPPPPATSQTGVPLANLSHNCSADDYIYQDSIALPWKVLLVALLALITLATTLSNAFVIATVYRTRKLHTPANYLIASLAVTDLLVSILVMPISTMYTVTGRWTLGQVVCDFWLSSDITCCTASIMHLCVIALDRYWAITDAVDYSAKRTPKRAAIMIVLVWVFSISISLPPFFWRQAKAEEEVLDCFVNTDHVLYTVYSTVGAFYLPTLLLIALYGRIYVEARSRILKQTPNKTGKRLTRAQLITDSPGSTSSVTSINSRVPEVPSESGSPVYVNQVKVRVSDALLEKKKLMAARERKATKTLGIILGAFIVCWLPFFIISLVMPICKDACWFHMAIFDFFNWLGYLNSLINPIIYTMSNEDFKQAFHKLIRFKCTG
T1 sequence (P19327 whole entry): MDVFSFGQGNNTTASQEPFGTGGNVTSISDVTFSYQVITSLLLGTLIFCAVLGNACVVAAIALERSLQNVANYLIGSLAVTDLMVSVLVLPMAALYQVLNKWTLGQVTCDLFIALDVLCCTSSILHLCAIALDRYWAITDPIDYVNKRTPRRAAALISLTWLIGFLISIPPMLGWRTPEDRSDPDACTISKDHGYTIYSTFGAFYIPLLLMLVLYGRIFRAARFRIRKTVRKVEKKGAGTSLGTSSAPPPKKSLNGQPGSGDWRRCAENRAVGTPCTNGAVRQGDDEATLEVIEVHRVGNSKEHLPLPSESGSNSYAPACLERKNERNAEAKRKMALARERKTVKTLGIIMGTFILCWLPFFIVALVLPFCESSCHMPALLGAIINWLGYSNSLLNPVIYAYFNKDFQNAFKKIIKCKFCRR
Sequence of 5-HT2B (P41595 whole entry): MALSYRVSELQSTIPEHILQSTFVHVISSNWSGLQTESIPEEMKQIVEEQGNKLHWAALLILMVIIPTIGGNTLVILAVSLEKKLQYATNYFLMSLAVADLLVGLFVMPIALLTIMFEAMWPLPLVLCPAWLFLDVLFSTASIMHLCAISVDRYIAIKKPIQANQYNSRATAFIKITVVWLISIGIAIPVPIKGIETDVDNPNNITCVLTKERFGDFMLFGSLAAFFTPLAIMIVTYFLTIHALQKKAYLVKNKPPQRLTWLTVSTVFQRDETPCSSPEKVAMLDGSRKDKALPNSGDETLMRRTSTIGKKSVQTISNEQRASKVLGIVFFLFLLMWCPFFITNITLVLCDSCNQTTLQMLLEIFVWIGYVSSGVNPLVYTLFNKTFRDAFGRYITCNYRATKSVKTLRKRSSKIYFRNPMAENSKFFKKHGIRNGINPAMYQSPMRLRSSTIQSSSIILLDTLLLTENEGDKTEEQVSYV
Sequence of 5-HTreuptake (P31645 whole entry): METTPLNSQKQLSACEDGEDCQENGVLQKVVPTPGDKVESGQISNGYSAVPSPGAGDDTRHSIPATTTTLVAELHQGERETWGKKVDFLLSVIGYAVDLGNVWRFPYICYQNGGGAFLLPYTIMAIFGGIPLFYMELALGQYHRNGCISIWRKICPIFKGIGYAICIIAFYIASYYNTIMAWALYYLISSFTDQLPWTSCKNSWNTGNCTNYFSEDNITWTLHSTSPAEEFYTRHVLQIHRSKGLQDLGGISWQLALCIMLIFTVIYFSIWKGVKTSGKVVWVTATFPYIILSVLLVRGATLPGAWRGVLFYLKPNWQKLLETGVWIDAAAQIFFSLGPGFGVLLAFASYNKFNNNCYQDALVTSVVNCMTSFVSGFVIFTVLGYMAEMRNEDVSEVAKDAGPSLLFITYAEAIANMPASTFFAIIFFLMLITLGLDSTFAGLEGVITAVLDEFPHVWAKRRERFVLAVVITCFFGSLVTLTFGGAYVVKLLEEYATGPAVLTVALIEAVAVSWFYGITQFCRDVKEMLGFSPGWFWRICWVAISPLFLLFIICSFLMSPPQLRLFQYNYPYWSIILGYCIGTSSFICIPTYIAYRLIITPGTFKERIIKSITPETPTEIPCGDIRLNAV
Sequence of Neurotensin-NT1 (P30989 whole entry): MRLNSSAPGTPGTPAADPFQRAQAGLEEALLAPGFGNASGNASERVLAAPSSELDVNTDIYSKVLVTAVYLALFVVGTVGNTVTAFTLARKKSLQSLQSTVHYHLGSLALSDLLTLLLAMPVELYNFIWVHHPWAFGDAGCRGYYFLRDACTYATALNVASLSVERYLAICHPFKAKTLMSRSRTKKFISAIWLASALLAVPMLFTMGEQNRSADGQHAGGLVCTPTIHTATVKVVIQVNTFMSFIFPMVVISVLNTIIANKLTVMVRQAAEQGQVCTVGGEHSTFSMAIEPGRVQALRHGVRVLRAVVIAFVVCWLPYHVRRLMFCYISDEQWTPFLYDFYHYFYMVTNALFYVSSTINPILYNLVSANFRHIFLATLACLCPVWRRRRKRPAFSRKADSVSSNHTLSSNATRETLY
Sequence of β1-adrenergic (P08588 whole entry): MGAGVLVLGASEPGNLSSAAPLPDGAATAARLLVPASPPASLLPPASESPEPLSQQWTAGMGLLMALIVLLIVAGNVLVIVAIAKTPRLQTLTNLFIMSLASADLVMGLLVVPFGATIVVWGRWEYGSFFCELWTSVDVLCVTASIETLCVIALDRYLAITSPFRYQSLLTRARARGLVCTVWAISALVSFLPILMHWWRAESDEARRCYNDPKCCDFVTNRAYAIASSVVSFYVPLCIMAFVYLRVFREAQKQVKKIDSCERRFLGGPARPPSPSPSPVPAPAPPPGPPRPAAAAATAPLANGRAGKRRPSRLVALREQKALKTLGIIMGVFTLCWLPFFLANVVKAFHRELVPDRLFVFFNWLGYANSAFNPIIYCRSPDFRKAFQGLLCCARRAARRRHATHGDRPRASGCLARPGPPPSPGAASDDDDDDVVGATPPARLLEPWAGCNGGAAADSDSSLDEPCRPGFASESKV
Sequence of Vasopressine-V1A (P37288 whole entry): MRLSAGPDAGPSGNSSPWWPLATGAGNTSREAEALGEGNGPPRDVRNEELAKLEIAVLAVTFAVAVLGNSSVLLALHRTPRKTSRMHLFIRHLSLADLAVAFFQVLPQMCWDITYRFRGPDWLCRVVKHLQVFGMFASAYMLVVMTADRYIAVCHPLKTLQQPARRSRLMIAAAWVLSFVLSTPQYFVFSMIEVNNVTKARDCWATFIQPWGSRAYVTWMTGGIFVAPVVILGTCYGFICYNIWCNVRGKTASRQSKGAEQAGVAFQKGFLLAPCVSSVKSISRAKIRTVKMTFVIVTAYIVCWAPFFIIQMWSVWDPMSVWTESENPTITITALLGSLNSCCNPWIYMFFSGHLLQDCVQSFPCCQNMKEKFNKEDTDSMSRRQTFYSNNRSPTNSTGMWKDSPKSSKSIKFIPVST

As for `Nc1cc2cccc(N3CCNCC3)c2oc1=O` [Compound 1, 3-amino-8-(1-piperazinyl)-2H-1-benzopyran-2-one], the Ki – broadly, the equilibrium dissociation constant of an inhibitor or competing ligand from its target – in [1] is over 10000 nM; in test [2] it was over 1000 nM; in test [3], over 1000 nM; in [4] it was over 1000 nM; in test [5], over 1000 nM; in test [6], 50 nM. Further, the Ki is 3.2 nM in test [7]; 2 nM in [8]; over 1000 nM in [9]; over 1000 nM in test [11]; 630 nM in test [12]; over 1000 nM in [13]. Moreover, the Ki in test [14] was over 1000 nM; in test [15] it was over 1000 nM; in test [16] it was over 1000 nM; in test [17], over 1000 nM; in test [18], 320 nM; in [19] it was over 1000 nM. The 50% effective dose (ED50) (in general, the midpoint of the dose-response relation) in test [10] turned out to be 0.12 mg/kg.
